Measured values from patent publication US20240090503A1, “FUNGICIDAL OXADIAZOLES AND THEIR MIXTURES” (FMC CORPORATION, priority 2020, published 2024).

Tests used:
[1] = system: Phakopsora pachyrhizi (the causal agent of Asian soybean rust); assay: Test A: preventive spray on soybean seedlings, Asian soybean rust, visual disease rating; assay type: in vivo; details: soybean seedlings
Source text: (§1) General protocol for preparing test suspensions for Tests A-D: the test compounds were first dissolved in acetone in an amount equal to 3% of the final volume and then suspended at the desired concentration (in ppm) in acetone and purified water (50/50 mix by volume) containing 250 ppm of the surfactant PEG400 (polyhydric alcohol esters). The resulting test suspensions were then used in Tests A-D.
(§2) The test suspension was sprayed to the point of run-off on soybean seedlings. The following day the seedlings were inoculated with a spore suspension of Phakopsora pachyrhizi (the causal agent of Asian soybean rust) and incubated in a saturated atmosphere at 22° C. for 24 h and then moved to a growth chamber at 22° C. for 8 days, after which time visual disease ratings were made.
(§3) The test results for Tests A-C presented in Table A below for compounds of Formula 1 illustrate the fungicidal activity of component (a) contributing to the plant disease control utility of compositions comprising component (a) in combination with component (b) according to the present invention. In the Table, a rating of 100 indicates 100% disease control and a rating of 0 indicates no disease control (relative to the controls). A dash (-) indicates the compound was not tested. The test suspensions were sprayed at the concentration listed in the column “Rate in ppm”, unless otherwise indicated. An asterisk “*” next to the rating indicates a 250 ppm test suspension was used, a double asterisk “**” next to the rating indicates a 100 ppm test suspension was used, and a triple asterisk “***” next to the rating indicates a 50 ppm test suspension was used.

[2] = system: Puccinia recondita f. sp. tritici (the causal agent of wheat leaf rust); assay: Test C: preventive spray on wheat seedlings, wheat leaf rust, visual disease rating; assay type: in vivo; details: wheat seedlings
Source text: as §1
as §2, with “on wheat” for “on soybean”, “of Puccinia recondita f. sp. tritici;” for “of Phakopsora pachyrhizi”, “of wheat leaf” for “of Asian soybean”, “at 20°” for “at 22°”, “24 h,” for “24 h”, “for 6” for “for 8”
as §3

[3] = test suspension 10 ppm, 100 = 100% disease control, 0 = no control

Row | SMILES | Test A disease control rating [1, 3] [%] | Test C disease control rating ([2]; test suspension 10 ppm) [%] | further results
1 | CNC(=O)c1cnn(Cc2ccc(-c3noc(C(F)(F)F)n3)cc2)c1 [compound 61] | 100 | 100 | –
2 | CN(C)C(=O)c1cnn(Cc2ccc(-c3noc(C(F)(F)F)n3)cc2)c1 [compound 62] | 100 | 100 | –
3 | CC(C)NC(=O)c1cnn(Cc2ccc(-c3noc(C(F)(F)F)n3)cc2)c1 [compound 63] | 100 | 100 | –
4 | C=CCNC(=O)c1cnn(Cc2ccc(-c3noc(C(F)(F)F)n3)cc2)c1 [compound 64] | 100 | 100 | –
5 | N#CCNC(=O)c1cnn(Cc2ccc(-c3noc(C(F)(F)F)n3)cc2)c1 [compound 65] | 100 | 100 | –
6 | CCOC(=O)c1c(C)nn(Cc2ccc(-c3noc(C(F)(F)F)n3)cc2)c1C [compound 66] | – | – | Test A disease control rating ([1]; test suspension 255 ppm): 100%; Test C disease control rating ([2]; test suspension 255 ppm): 100%
7 | CCNC(=O)c1cnn(Cc2ccc(-c3noc(C(F)(F)F)n3)cc2)c1 [compound 67] | 100 | 99 | –
8 | CCCNC(=O)c1cnn(Cc2ccc(-c3noc(C(F)(F)F)n3)cc2)c1 [compound 68] | 100 | 100 | –
9 | O=C(NC1CC1)c1cnn(Cc2ccc(-c3noc(C(F)(F)F)n3)cc2)c1 [compound 69] | 100 | 100 | –
10 | FC(F)(F)c1nc(-c2ccc(Cn3ccc(Br)n3)s2)no1 [compound 72] | – | – | Test A disease control rating ([1]; test suspension 50 ppm): 99%; Test C disease control rating ([2]; test suspension 50 ppm): 100%
11 | CCOC(=O)c1cc(C)n(Cc2ccc(-c3noc(C(F)(F)F)n3)s2)n1 [compound 73] | 100 | 86 | –
12 | N#Cc1c(Br)cnn1Cc1ccc(-c2noc(C(F)(F)F)n2)s1 [compound 77] | – | – | Test A disease control rating ([1]; test suspension 50 ppm): 100%; Test C disease control rating ([2]; test suspension 50 ppm): 100%
13 | CC(C)(C)NC(=O)c1cnn(Cc2ccc(-c3noc(C(F)(F)F)n3)cc2)c1 [compound 78] | 100 | 100 | –
14 | CCOC(=O)c1cc(CC)n(Cc2ccc(-c3noc(C(F)(F)F)n3)cc2)n1 [compound 79] | 100 | 68 | –
15 | CCOC(=O)c1cc(C(C)C)n(Cc2ccc(-c3noc(C(F)(F)F)n3)cc2)n1 [compound 80] | 100 | 68 | –
16 | CCOC(=O)c1cc(CC)nn1Cc1ccc(-c2noc(C(F)(F)F)n2)cc1 [compound 81] | 100 | 0 | –
17 | CCOC(=O)c1cc(C(C)C)nn1Cc1ccc(-c2noc(C(F)(F)F)n2)cc1 [compound 82] | 0 | 0 | –
18 | FC(F)(F)c1nc(-c2ccc(Cn3ccc(Br)n3)cc2)no1 [compound 97] | – | – | Test A disease control rating ([1]; test suspension 50 ppm): 99%; Test C disease control rating ([2]; test suspension 50 ppm): 100%
19 | CC(C)(C)c1ccn(Cc2ccc(-c3noc(C(F)(F)F)n3)cc2)n1 [compound 98] | – | – | Test A disease control rating ([1]; test suspension 50 ppm): 99%; Test C disease control rating ([2]; test suspension 50 ppm): 68%
20 | Cc1nn(Cc2ccc(-c3noc(C(F)(F)F)n3)cc2)c2ccccc12 [compound 99] | 100 | 68 | –
21 | Cc1cccc2c1cnn2Cc1ccc(-c2noc(C(F)(F)F)n2)cc1 [compound 100] | 100 | 86 | –
22 | Cc1cccc2cnn(Cc3ccc(-c4noc(C(F)(F)F)n4)cc3)c12 [compound 101] | – | – | Test A disease control rating ([1]; test suspension 50 ppm): 100%; Test C disease control rating ([2]; test suspension 50 ppm): 100%

Row | SMILES | Test A disease control rating [1, 3] [%] | Test C disease control rating ([2]; test suspension 10 ppm) [%] | further results
23 | Cc1cccc2nn(Cc3ccc(-c4noc(C(F)(F)F)n4)cc3)cc12 [compound 102] | 100 | 99 | –
24 | Cc1cccc2cn(Cc3ccc(-c4noc(C(F)(F)F)n4)cc3)nc12 [compound 103] | 100 | 97 | –
25 | N#Cc1nn(Cc2ccc(-c3noc(C(F)(F)F)n3)cc2)c2ccccc12 [compound 104] | 100 | 68 | –
26 | N#Cc1cccc2c1cnn2Cc1ccc(-c2noc(C(F)(F)F)n2)cc1 [compound 105] | – | – | Test A disease control rating ([1]; test suspension 50 ppm): 100%; Test C disease control rating ([2]; test suspension 50 ppm): 100%
27 | N#Cc1ccc2c(cnn2Cc2ccc(-c3noc(C(F)(F)F)n3)cc2)c1 [compound 106] | – | – | Test A disease control rating ([1]; test suspension 50 ppm): 100%; Test C disease control rating ([2]; test suspension 50 ppm): 100%
28 | N#Cc1cccc2nn(Cc3ccc(-c4noc(C(F)(F)F)n4)cc3)cc12 [compound 107] | 100 | 90 | –
29 | N#Cc1ccc2nn(Cc3ccc(-c4noc(C(F)(F)F)n4)cc3)cc2c1 [compound 108] | – | – | Test A disease control rating ([1]; test suspension 50 ppm): 100%; Test C disease control rating ([2]; test suspension 50 ppm): 100%
30 | CCOC(=O)c1cc(C)nn1Cc1ccc(-c2noc(C(F)(F)F)n2)cc1 [compound 109] | – | – | Test A disease control rating ([1]; test suspension 50 ppm): 100%; Test C disease control rating ([2]; test suspension 50 ppm): 77%
31 | FC(F)(F)c1nc(-c2ccc(Cn3nc(Br)c4ccccc43)cc2)no1 [compound 112] | 92 | 0 | –
32 | FC(F)(F)c1nc(-c2ccc(Cn3nc4ccccc4c3Br)cc2)no1 [compound 113] | 99 | 0 | –
33 | Nc1ccc2c(cnn2Cc2ccc(-c3noc(C(F)(F)F)n3)cc2)c1 [compound 115] | 98 | 95 | –
34 | COc1ccc2c(C#N)n(Cc3ccc(-c4noc(C(F)(F)F)n4)cc3)nc2c1 [compound 121] | 87 | 0 | –
35 | COc1ccc2c(cnn2Cc2ccc(-c3noc(C(F)(F)F)n3)cc2)c1 [compound 126] | – | – | Test A disease control rating ([1]; test suspension 260 ppm): 100%; Test C disease control rating ([2]; test suspension 260 ppm): 100%
36 | Cc1cc(C(F)(F)F)n(Cc2ccc(-c3noc(C(F)(F)F)n3)cc2)n1 [compound 127] | 0 | 0 | –
37 | COc1ccc2nn(Cc3ccc(-c4noc(C(F)(F)F)n4)cc3)cc2c1 [compound 131] | 100 | 99 | –
38 | FC(F)(F)c1nc(-c2ccc(Cn3ccc4ccncc43)cc2)no1 [compound 135] | 96 | 0 | –
39 | FC(F)(F)c1nc(-c2ccc(Cn3ccc4cnccc43)cc2)no1 [compound 137] | 100 | 41 | –
40 | O=C(O)c1cc(C(=O)O)n(Cc2ccc(-c3noc(C(F)(F)F)n3)cc2)n1 [compound 140] | 0 | 0 | –
41 | COC(=O)c1c2ccccc2nn1Cc1ccc(-c2noc(C(F)(F)F)n2)cc1 [compound 141] | 100 | 88 | –
42 | CN(C)C(=O)c1nn(Cc2ccc(-c3noc(C(F)(F)F)n3)cc2)c2ccccc12 [compound 148] | 100 | 96 | –
43 | N#CC1CCN(Cc2ccc(-c3noc(C(F)(F)F)n3)cc2)C1 (stereo not shown) [compound 151] | – | – | Test A disease control rating ([1]; test suspension 50 ppm): 100%; Test C disease control rating ([2]; test suspension 50 ppm): 98%
44 | FC(F)(F)c1nc(-c2ccc(Cn3ncc4cnc(Cl)nc43)cc2)no1 [compound 152] | 100 | 100 | –
